Tests used:
YbdB = target: T1, YbdB (Escherichia coli, UniProt P0A8Y8); test: DTNB assay on clarified lysate, empty-vector lysate control; format: biochemical; conditions: 0.2 mM substrate, 100 mM triethanolamine pH 8, 25 °C, 0.4 mM DTNB
T1 construct: gene entH; full-length in pET29a, expressed in E. coli BL21(DE3), clarified lysate
T1 sequence (P0A8Y8 1-137): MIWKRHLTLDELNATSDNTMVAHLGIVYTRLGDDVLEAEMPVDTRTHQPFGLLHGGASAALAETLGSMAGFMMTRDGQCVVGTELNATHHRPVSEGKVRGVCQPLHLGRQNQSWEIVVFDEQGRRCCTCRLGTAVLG

PA2801 = target: T2, PA2801 (Pseudomonas aeruginosa, UniProt Q9I042); test: as above; format: biochemical; conditions: 0.2 mM substrate, 100 mM triethanolamine pH 8, 25 °C, 0.4 mM DTNB
T2 construct: full-length in pET29a, expressed in E. coli BL21(DE3), clarified lysate
T2 sequence (Q9I042 1-134): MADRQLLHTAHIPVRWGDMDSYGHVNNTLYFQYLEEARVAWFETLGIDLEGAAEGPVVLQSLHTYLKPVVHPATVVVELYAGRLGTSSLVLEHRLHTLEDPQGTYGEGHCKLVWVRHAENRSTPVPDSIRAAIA

| SMILES | DTNB assay on clarified lysate, empty-vector lysate control (YbdB) | DTNB assay on clarified lysate, empty-vector lysate control (PA2801) |
| --- | --- | --- |
| CC(C)(COP(=O)(O)OP(=O)(O)OC[C@H]1O[C@@H](n2cnc3c(N)ncnc32)[C@H](O)[C@@H]1OP(=O)(O)O)[C@@H](O)C(=O)NCCC(=O)NCCSC(=O)c1ccccc1 [Bz CoA, Benzoyl CoA] | YbdB was found to only have activity towards Bz CoA and nHD CoA | – |
| CCCCCCCCCCCCCCCCC(=O)SCCNC(=O)CCNC(=O)[C@H](O)C(C)(C)COP(=O)(O)OP(=O)(O)OC[C@H]1O[C@@H](n2cnc3c(N)ncnc32)[C@H](O)[C@@H]1OP(=O)(O)O [nHD CoA, n-heptadecanoyl CoA] | YbdB was found to only have activity towards Bz CoA and nHD CoA | – |
| CC(C)(COP(=O)(O)OP(=O)(O)OC[C@H]1O[C@@H](n2cnc3c(N)ncnc32)[C@H](O)[C@@H]1OP(=O)(O)O)[C@@H](O)C(=O)NCCC(=O)NCCSC(=O)C1CCCCC1 [CHC CoA, cyclohexanecarboxylic acid coenzyme A] | – | despite activity being found with CHC CoA, no activity was found with CHC-NAC |
| CC(O)CC(=O)SCCNC(=O)CCNC(=O)[C@H](O)C(C)(C)COP(=O)(O)OP(=O)(O)OC[C@H]1O[C@@H](n2cnc3c(N)ncnc32)[C@H](O)[C@@H]1OP(=O)(O)O (mixture of isomers) [DLBH CoA, DL-β-hydroxybutyryl CoA] | – | PA2801 was found to have activity towards the aliphatic CoA esters: DLBH CoA |

From publication PMC7190597, “Characterisation of four hotdog-fold thioesterases for their implementation in a novel organic acid production system” (Applied Microbiology and Biotechnology, 2020)
